Earlier results, collected in patent publication EP3021668B1, “EMULSIFIABLE CONCENTRATE COMPRISING PESTICIDE, ALKYL LACTATE, FATTY AMIDE AND ACETOPHENONE” (BASF SE, priority 2013, dated 2015).

How the values were obtained:
[1] = pure solvents; according to the Annex III of European Union Directive 67/548/EEC
[2] = at 20 °C

Row | SMILES | eye toxicity classification [1] | soluble in water [2]
1 | CCCC[C@H](CC)COC(=O)C(C)O (stereo partly drawn) [(S)-2-ethylhexyl lactate] | R36 "Irritating to eyes" | –
2 | CC(=O)c1ccccc1 [acetophenone] | R36 "Irritating to eyes" | –
3 | Cn1cc(C(=O)Nc2ccccc2-c2cc(F)c(F)c(F)c2)c(C(F)F)n1 [fluxapyroxad] | – | about 4 mg/l
4 | COC(=O)N(OC)c1ccccc1COc1ccn(-c2ccc(Cl)cc2)n1 [pyraclostrobin] | – | about 2 mg/l
